Assay results from ChEMBL document CHEMBL1201862, “PubChem BioAssay data set” (2004).
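Dose response: 5 concentrations. Exposure: 48 h. Format: 96-well plates. Endpoint: linear interpolation; highest concentration if not reached. GI50 = concentration required for 50% inhibition of growth.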 The source made the active and inactive calls. Rule as the data show it: active = GI50 up to about 1.1 µM and inactive = higher.

Columns and labels:
Assay in all cases: NCI tumour cell line growth inhibition, 48 h
HOP-62 = system: HOP-62
OVCAR-3 = system: OVCAR-3
SW-620 = system: SW-620
HT-29 = system: HT-29
UACC-257 = system: UACC-257
SN12C = system: SN12C
SF-539 = system: SF-539
LXFL 529 = system: LXFL 529
MOLT-4 = system: MOLT-4
NCI-H460 = system: NCI-H460
NCI-H522 = system: NCI-H522
XF498 = system: XF498
UO-31 = system: UO-31
HCT-15 = system: HCT-15
HCC 2998 = system: HCC 2998
RXF 393 = system: RXF 393
A549 = system: A549
OVCAR-8 = system: OVCAR-8
COLO 205 = system: COLO 205
ACHN = system: ACHN
SK-MEL-28 = system: SK-MEL-28
OVCAR-4 = system: OVCAR-4
SR = system: SR
A498 = system: A498
Malme-3M = system: Malme-3M
SK-MEL-5 = system: SK-MEL-5
NCI-H226 = system: NCI-H226
UACC-62 = system: UACC-62
HOP-92 = system: HOP-92
SNB-19 = system: SNB-19
DMS-273 = system: DMS-273
HOP-18 = system: HOP-18
M14 = system: M14
SNB-75 = system: SNB-75
DMS-114 = system: DMS-114
HCT-116 = system: HCT-116
DLD-1 = system: DLD-1
RPMI-8226 = system: RPMI-8226
SK-OV-3 = system: SK-OV-3
SK-MEL-2 = system: SK-MEL-2
SF-295 = system: SF-295
LOX IMVI = system: LOX IMVI
KM-20L2 = system: KM-20L2
EKVX = system: EKVX
SF-268 = system: SF-268
IGROV-1 = system: IGROV-1
CAKI-1 = system: CAKI-1
CCRF-CEM = system: CCRF-CEM
K562 = system: K562
HL-60 = system: HL-60
M19-MEL = system: M19-MEL
SNB-78 = system: SNB-78
TK-10 = system: TK-10
NCI-H23 = system: NCI-H23
KM12 = system: KM12
786-0 = system: 786-0
U-251 = system: U-251
OVCAR-5 = system: OVCAR-5
RXF 631 = system: RXF 631

Nc1ncnc2c(C3OC(CO)C(O)C3O)scc12 (centres undefined)
GI50 (HOP-62): 0.133 µM (active) | GI50 (OVCAR-3): 0.00241 µM (active) | GI50 (SW-620): 0.0192 µM (active) | GI50 (HT-29): 0.00458 µM (active) | GI50 (UACC-257): 0.0792 µM (active) | GI50 (SN12C): 0.373 µM (active) | GI50 (SF-539): 4.94 µM (inactive) | GI50 (LXFL 529): 0.129 µM (active) | GI50 (MOLT-4): 0.0767 µM (active) | GI50 (NCI-H460): 0.00615 µM (active) | GI50 (NCI-H522): 0.0107 µM (active) | GI50 (XF498): 0.0282 µM (active) | GI50 (UO-31): 0.57 µM (active) | GI50 (HCT-15): 0.00278 µM | GI50 (HCC 2998): 0.00504 µM (active) | GI50 (RXF 393): 0.222 µM (active) | GI50 (A549): 0.00721 µM (active) | GI50 (OVCAR-8): 0.00179 µM (active) | GI50 (COLO 205): 0.026 µM (active) | GI50 (ACHN): 0.0877 µM (active) | GI50 (SK-MEL-28): 0.873 µM (active) | GI50 (OVCAR-4): 0.0468 µM (active) | GI50 (SR): 0.319 µM (active) | GI50 (A498): 0.0316 µM (active) | GI50 (Malme-3M): 2.54 µM (inactive) | GI50 (SK-MEL-5): 0.346 µM (active) | GI50 (NCI-H226): 0.0386 µM (active) | GI50 (UACC-62): 0.00321 µM (active) | GI50 (HOP-92): 0.0117 µM (active) | GI50 (SNB-19): 1.38 µM (inactive) | GI50 (DMS-273): 0.00377 µM (active) | GI50 (HOP-18): < 0.01 µM (active) | GI50 (M14): 0.00586 µM (active) | GI50 (SNB-75): 0.459 µM (active) | GI50 (DMS-114): 0.0292 µM (active) | GI50 (HCT-116): 0.00885 µM (active) | GI50 (DLD-1): 0.00212 µM (active) | GI50 (RPMI-8226): 0.00222 µM (active) | GI50 (SK-OV-3): < 0.001 µM (active) | GI50 (SK-MEL-2): 0.0431 µM (active) | GI50 (SF-295): 0.129 µM (active) | GI50 (LOX IMVI): 0.0566 µM (active) | GI50 (KM-20L2): 0.00516 µM (active) | GI50 (EKVX): 1.04 µM (active) | GI50 (SF-268): 1.77 µM (inactive) | GI50 (IGROV-1): 0.513 µM (active) | GI50 (CAKI-1): < 0.01 µM (active) | GI50 (CCRF-CEM): 0.0597 µM (active) | GI50 (K562): 0.00262 µM (active) | GI50 (HL-60): < 0.001 µM (active) | GI50 (M19-MEL): 0.369 µM (active) | GI50 (SNB-78): 4.31 µM (inactive) | GI50 (TK-10): 0.191 µM (active) | GI50 (NCI-H23): 0.152 µM (active) | GI50 (KM12): < 0.001 µM (active) | GI50 (786-0): 0.217 µM (active) | GI50 (U-251): 3.78 µM (inactive) | GI50 (OVCAR-5): 0.0222 µM (active)

C[Si](C)(C)C#C[I+]c1ccccc1
GI50 (HOP-62): > 100 µM (inactive) | GI50 (OVCAR-3): 32.7 µM (inactive) | GI50 (HT-29): 32.9 µM (inactive) | GI50 (UACC-257): > 100 µM (inactive) | GI50 (SN12C): 21.7 µM (inactive) | GI50 (SF-539): 28.9 µM (inactive) | GI50 (LXFL 529): 28.4 µM (inactive) | GI50 (MOLT-4): 29.4 µM (inactive) | GI50 (NCI-H460): > 100 µM (inactive) | GI50 (NCI-H522): 9.4 µM (inactive) | GI50 (XF498): 29.8 µM (inactive) | GI50 (UO-31): 67 µM (inactive) | GI50 (HCT-15): 22.5 µM | GI50 (HCC 2998): > 100 µM (inactive) | GI50 (RXF 393): 47.4 µM (inactive) | GI50 (A549): > 100 µM (inactive) | GI50 (OVCAR-8): 19.6 µM (inactive) | GI50 (COLO 205): 17.7 µM (inactive) | GI50 (ACHN): 41.8 µM (inactive) | GI50 (SK-MEL-28): 39.4 µM (inactive) | GI50 (OVCAR-4): 36.2 µM (inactive) | GI50 (A498): > 100 µM (inactive) | GI50 (Malme-3M): 41 µM (inactive) | GI50 (SK-MEL-5): 45.9 µM (inactive) | GI50 (NCI-H226): > 100 µM (inactive) | GI50 (RXF 631): 30.1 µM (inactive) | GI50 (UACC-62): 33.2 µM (inactive) | GI50 (HOP-92): 40.5 µM (inactive) | GI50 (SNB-19): > 100 µM (inactive) | GI50 (DMS-273): 19.8 µM (inactive) | GI50 (HOP-18): 75.5 µM (inactive) | GI50 (M14): 23.5 µM (inactive) | GI50 (SNB-75): 40.4 µM (inactive) | GI50 (DMS-114): 20.9 µM (inactive) | GI50 (HCT-116): 27.5 µM (inactive) | GI50 (DLD-1): 19.4 µM (inactive) | GI50 (SK-OV-3): > 100 µM (inactive) | GI50 (SK-MEL-2): > 100 µM (inactive) | GI50 (SF-295): > 100 µM (inactive) | GI50 (LOX IMVI): 19.1 µM (inactive) | GI50 (KM-20L2): 37.5 µM (inactive) | GI50 (EKVX): 52.1 µM (inactive) | GI50 (SF-268): 45.9 µM (inactive) | GI50 (IGROV-1): 92 µM (inactive) | GI50 (CAKI-1): 42.8 µM (inactive) | GI50 (CCRF-CEM): 15.1 µM (inactive) | GI50 (K562): 41.1 µM (inactive) | GI50 (HL-60): 22.5 µM (inactive) | GI50 (M19-MEL): 31.6 µM (inactive) | GI50 (SNB-78): 50.2 µM (inactive) | GI50 (TK-10): > 100 µM (inactive) | GI50 (NCI-H23): 36.8 µM (inactive) | GI50 (KM12): 87.3 µM (inactive) | GI50 (786-0): 45.6 µM (inactive) | GI50 (U-251): 38 µM (inactive) | GI50 (OVCAR-5): > 100 µM (inactive)
